Source: patent US8012942B2, “Carba-nucleoside analogs for antiviral treatment” (Gilead Sciences, Inc., priority 2009, dated 2011)
Read-outs that look alike come from different tables or passages of the source.

Key:
HCV Δ21 NS5b polymerase = target: T1, HCV Δ21 NS5b polymerase (Hepatitis C virus genotype 1b, UniProt Q9WMX2); assay: HCV IC50 determination, NS5b polymerase assay; assay type: biochemical
T1 construct: 75 nM HCV Δ21 NS5b polymerase
Description: Assay Protocol: Either wild type or S282T (Migliaccio, et al, J. Biol. Chem. 2003, 49164-49170; Klumpp, et al., J. Biol. Chem. 2006, 3793-3799) mutant polymerase enzyme was used in this assay. NS5b polymerase assay (40 μL) was assembled by adding 28 μL polymerase mixture (final concentration: 50 mM Tris-HCl at pH 7.5, 10 mM KCL, 5 mM MgCl2, 1 mM DTT, 10 mM EDTA, 4 ng/μL of RNA template, and 75 nM HCV Δ21 NS5b polymerase) to assay plates followed by 4 μL of compound dilution. The polymerase and compound were pre-incubated at 35° C. for 10 minute before the addition of 8 μL of nucleotide substrate mixture (33P-α-labeled competing nucleotide at KM and 0.5 mM of the remaining three nucleotides). The assay plates were covered and incubated at 35° C. for 90 min. Reactions were then filtered through 96-well DEAE-81 filter plates via vacuum. The filter plates were then washed under vacuum with multiple volumes of 0.125 M NaHPO4, water, and ethanol to remove unincorporated label. Plates were then counted on TopCount to assess the level of product synthesis over background controls. The IC50 value is determined using Prism fitting program.

Replicon cells = assay: HCV EC50 determination, replicon luciferase assay; assay type: cell-based; details: Hepatitis C virus, 72 h
Description: Replicon cells were seeded in 96-well plates at a density of 8×10^3 cells per well in 100 μL of culture medium, excluding Geneticin. Compound was serially diluted in 100% DMSO and then added to the cells at a 1:200 dilution, achieving a final concentration of 0.5% DMSO and a total volume of 200 μL. Plates were incubated at 37° C. for 3 days, after which culture medium was removed and cells were lysed in lysis buffer provided by Promega's luciferase assay system. Following the manufacturer's instruction, 100 μL of luciferase substrate was added to the lysed cells and luciferase activity was measured in a TopCount luminometer.

[1] = replicon cells, 3 days at 37° C., luciferase activity, read-out: EC50

Q: `C[C@@]1(O)[C@H](O)[C@@H](COP(=O)(O)OP(=O)(O)OP(=O)(O)O)O[C@H]1c1scc2c(N)ncnc12` [Compound 4] was tested. Which IC50 (HCV Δ21 NS5b polymerase) did it give?
A: 0.37 µM

Q: Which EC50 (Replicon cells; [1]) does the source give for `C[C@@]1(O)[C@H](O)[C@@H](CO)O[C@H]1c1scc2c(N)ncnc12` [Compound 1] here?
A: 90 µM

Q: For `CC(C)(C)C(=O)SCCOP(=O)(OCCSC(=O)C(C)(C)C)OC[C@H]1O[C@@H](c2scc3c(N)ncnc23)[C@](C)(O)[C@@H]1O` [Compound 2], which EC50 (Replicon cells; [1]) is on record?
A: 6.1 µM

Q: Which EC50 (Replicon cells; [1]) does the source give for `CC(C)(C)C(=O)SCCOP(=O)(OCCSC(=O)C(C)(C)C)OC[C@H]1O[C@@H](c2scc3c(=O)[nH]c(N)nc23)[C@](C)(O)[C@@H]1O` [Compound 62] here?
A: 24 µM

Q: Which IC50 (HCV Δ21 NS5b polymerase) does the source give for `C[C@@]1(O)[C@H](O)[C@@H](COP(=O)(O)OP(=O)(O)OP(=O)(O)O)O[C@H]1c1scc2c(=O)[nH]c(N)nc12` [Compound 63] here?
A: 0.27 µM

Q: How did the EC50 (Replicon cells) turn out when `CCOC(=O)[C@H](C)NP(=O)(OC[C@H]1O[C@@H](c2scc3c(N)ncnc23)[C@](C)(O)[C@@H]1O)Oc1ccccc1` (stereo partly drawn) [Compound 64] was run?
A: 2.9 µM
